Results from patent publication US5218123A, “Didehydrotryptophan derivatives and pharmaceutical use thereof” (Warner-Lambert Company, priority 1992, dated 1993).

target: T1, Central CCK-B Receptors (Mus musculus, UniProt P56481); test: Binding to central CCK-B receptors: displacement of tritiated-pentagastrin from cerebral cortical membranes; parameters: species or system mouse (male CFLP mice); details: tritiated-pentagastrin 2 nM, 23° C., pH 7.2
T1 construct: from tissue; host or cells: cerebral cortex membranes of male CFLP mice (30 to 40 g)
T1 sequence (P56481 1-453): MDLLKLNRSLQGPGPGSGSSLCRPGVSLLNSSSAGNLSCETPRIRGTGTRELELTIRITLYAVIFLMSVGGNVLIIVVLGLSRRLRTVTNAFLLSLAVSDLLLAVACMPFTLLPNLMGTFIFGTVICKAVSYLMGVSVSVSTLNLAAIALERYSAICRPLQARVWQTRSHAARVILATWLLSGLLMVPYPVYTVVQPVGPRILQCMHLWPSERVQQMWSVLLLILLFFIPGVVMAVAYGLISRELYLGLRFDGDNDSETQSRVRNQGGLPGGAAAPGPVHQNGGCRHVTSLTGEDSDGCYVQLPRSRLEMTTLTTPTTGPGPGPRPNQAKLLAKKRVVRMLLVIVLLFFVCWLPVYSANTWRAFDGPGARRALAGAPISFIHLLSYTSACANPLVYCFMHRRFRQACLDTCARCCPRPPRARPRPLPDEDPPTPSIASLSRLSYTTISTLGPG
Protocol: The biological activity of compounds of the present invention was evaluated employing an initial screening test which rapidly and accurately measured the binding of the tested compound to known CCK receptor sites. […] (See Hays, et al, Neuropeptides 1:53-62, 1980; and Satuer et al, Science 208:1155-1156, 1980.)
In this screening test, the cerebral cortices taken from male CFLP mice weighing between 30 to 40 g were dissected on ice, weighed, and homogenized in 10 volumes of 50 mM Tris-HCl buffer (pH 7.4 at 0°-4° C.). The resulting suspension was centrifuged, the supernate was discarded, and the pellet was washed by resuspension in Tris-HCl buffer followed by recentrifugation. The final pellet was resuspended in 20 volumes of […] buffer (pH 7.2 at 23° C.) containing 130 mM NaCl, […], […], […], 5 mg/mL bovine albumin, and bacitracin (0.25 mg/mL).
In saturation studies, cerebral cortical membranes were incubated at 23° C. for 120 minutes in a final volume of 500 μL of Hepes incubation buffer (pH 7.2) together with 0.2-20 nM tritiated-pentagastrin (Amersham International, England).
In the displacement experiments, membranes were incubated with a single concentration (2 nM) of ligand, together with increasing concentrations ([…] to 10^-4 M) of competitive test compound. In each case, the nonspecific binding was defined as that persisting in the presence of the unlabeled octapeptide CCK26-33 (10^-6 M).
Following incubation, radioactivity bound to membranes was separated from that free in solution by rapid filtration through Whatman GF/B filters and washed three times with 4 mL of ice cold Tris-HCl buffer. Filters from samples incubated with tritiated pentagastrin were placed in polyethylene vials with 4 mL of scintillation cocktail, and the radioactivity was estimated by liquid scintillation spectrometry (efficiency 47% to 52%).
The specific binding to CCK receptor sites was defined as the total bound tritiated-pentagastrin minus the amount of tritiated-pentagastrin bound in the presence of 10^-6 octapeptide, CCK26-33.
Saturation curves for specific tritiated-pentagastrin binding to mouse cortical membranes were analyzed by the methods of Scatchard (Ann. New York Acad. Sci. 51:660-672, 1949), and Hill (J. Physiol. 40:IV-VIII, 1910), to provide estimates for the maximum number of binding sites (Bmax) and the equilibrium dissociation constant (Ka).
In displacement experiments, inhibition curves were analyzed by either logit-log plots or the iterative curve fitting computer program ALLFIT (DeLean, Munson, and Redbard, 1978) to provide estimates of the IC50 and nH (apparent Hill coefficient values). (IC50 values were defined as the concentration of test compound required to produce 50% inhibition of specific binding.)
The inhibition constant (Ki) of the test compound was then calculated according to the Cheng Prusoff equation: [formula] where [L]is the concentration of radiolabel and Ka is the equilibrium dissociation constant.
^a Binding affinity protocol Horwell, et al, J. Med. Chem. 34:404,

Row | SMILES | Ki
1 | COC(=O)CC(=O)Nc1ccccc1CCNC(=O)/C(=C/c1c[nH]c2ccccc12)NC(=O)OC1C2CC3CC(C2)CC1C3 (stereo not shown) [4, step 2] | 616 nM
2 | O=C(N/C(=C\c1c[nH]c2ccccc12)C(=O)NCCc1ccccn1)OC1C2CC3CC(C2)CC1C3 (stereo not shown) [Example 3, Tricyclo[3.3.1.1^3,7]dec-2-yl (Z)-[1-(1H-indol-3-ylmethylene) -2-oxo-2-[[2-(2-pyridinyl)ethyl]amino]ethyl]carbamate] | 507 nM
3 | O=C(N/C(=C\c1c[nH]c2ccccc12)C(=O)NCCc1ccccc1)OC1C2CC3CC(C2)CC1C3 (stereo not shown) [Example 1, Carbamic acid, [1-(1H-indol-3-ylmethylene)-2-oxo-2-[(2-phenylethyl)amino]ethyl]-, tricyclo[3.3.1.1^3,7]dec-2-yl ester, (Z)-] | 1520 nM
4 | O=C(O)C[C@H](Cc1ccccc1)NC(=O)C(=Cc1c[nH]c2ccccc12)NC(=O)OC1C2CC3CC(C2)CC1C3 (mixture of isomers) [Example 5, (E/Z)-N-[α,β-Didehydro-N-[(tricyclo[3.3.1.1^3,7]dec-2-yloxy)carbonyl]tryptophyl]-L-3-(phenylmethyl)-β-alanine] | 0.3 nM
5 | O=C(O)CC(=O)Nc1ccccc1CCNC(=O)/C(=C/c1c[nH]c2ccccc12)NC(=O)OC1C2CC3CC(C2)CC1C3 (stereo not shown) [Example 4, (Z)-3-[[2-[2-[[3-(1H-indol-3-yl)-1-oxo-2-[[(tricyclo[3.3.1.1^3,7]dec-2-yloxy)carbonyl]amino]-2-propenyl]amino]ethyl]phenyl]amino]-3-oxopropanoic acid] | 209 nM
6 | O=C(O)C[C@H](Cc1ccccc1)NC(=O)/C(=C/c1c[nH]c2ccccc12)NC(=O)OC1C2CC3CC(C2)CC1C3 (stereo partly drawn) [Example 2, (Z)-N-[α,β-Didehydro-N-[(tricyclo[3.3.1.1^3,7]dec-2-yloxy)carbonyl]tryptophyl]-L -3-(phenylmethyl)-β-alanine] | 13 nM

system: hyperactivity caused by the injection of amphetamine into the nucleus accumbens of the rat; test: Reduction of hyperactivity caused by intra-accumbens amphetamine (locomotor activity, antipsychotic test); assay type: in vivo, rat (male Sprague Dawley (CD) Bradford strain); details: bilateral injection of amphetamine (20 μg) into the nucleus accumbens, 20 to 40 minutes after injection
Protocol: The compounds of the instant invention are useful as antipsychotic agents. The compounds are tested for their ability to reduce the effects of intra-accumbens amphetamine in the rat as described hereinafter.
Male Sprague Dawley (CD) Bradford strain rats are used. The rats are housed in groups of five at a temperature of 21°±2° C. on a 12-hour light-dark cycle of lights-on between 07 hours 00 minutes and 20 hours 00 minutes. Rats are fed CRM diet (Labsure) and allowed water ad libitum.
Rats are anesthetized with chloral hydrate (400 mg/kg^-1 SC) and placed in a Kopf stereotaxic frame. Chronically indwelling guide cannulae (constructed of stainless steel tubing 0.65 mm diameter held bilaterally on Parspex holders) are implanted using standard stereotaxic techniques to terminate 3.5 mm above the center of the nucleus accumbens (Ant. 9.4, Vert. 0.0, Lat. 1.6) or 5.0 mm above the central nucleus of the amygdala (Ant. 5.8, Vert. -1.8, lat. ±4.5) (atlas of De Groot, 1959). The guides are kept patent during a 14 day recovery period using stainless steel stylets, 0.3 mm diameter, which extend 0.5 mm beyond the guide tips.
Rats are manually restrained and the stylets removed. […]
The abilities of the compounds (20) and (20A) to inhibit the hyperactivity caused by the injection of amphetamine into the nucleus accumbens of the rat is measured. […]

Row | SMILES | peak hyperactivity
7 | CC(N)Cc1ccccc1 (stereo not shown) [amphetamine] | 50 to 60 counts 5 minutes^-1
